Experimental data reported in ChEMBL document CHEMBL4406807, “Discovery of 3,4,6-Trisubstituted Piperidine Derivatives as Orally Active, Low hERG Blocking Akt Inhibitors via Conformational Restriction and Structure-Based Design” (J Med Chem, 2019).

Assays:
SK-OV-3 [1] = test: Antitumor activity against human SKOV3 cells xenografted in BALB/c nude mouse assessed as tumor growth inhibition at 60 mg/kg, po administered once daily for 21 days relative to control; type: functional; conditions: SK-OV-3, po, 504 h, read-out: TGI
[2] = target: Potassium/sodium hyperpolarization-activated cyclic nucleotide-gated channel 3 (Homo sapiens, UniProt Q9P1Z3); test: Inhibition of HCN3 (unknown origin) at 3 uM relative to control
[3] = Tmax in Sprague-Dawley rat at 40 mg/kg, ig measured up to 24 hrs by LC-MS/MS analysis; type: ADME, organism-based; conditions: in vivo, po
[4] = target: Inward rectifier potassium channel 2 (Homo sapiens, UniProt P63252); test: Inhibition of Kir2.1 (unknown origin) at 3 uM relative to control
[5] = Toxicity in ICR mouse assessed as effect on body weight at 80 to 160 mg/kg, ig administered once daily for 7 days; type: organism-based; conditions: in vivo, po, 168 h
[6] = Toxicity in ICR mouse assessed as effect on biochemical parameter at 80 to 160 mg/kg, ig; type: organism-based; conditions: in vivo, po
SK-OV-3 [7] = test: Antitumor activity against human SKOV3 cells xenografted in BALB/c nude mouse assessed as tumor growth inhibition at 80 mg/kg, po administered once daily for 21 days relative to control; type: functional; conditions: SK-OV-3, po, 504 h, read-out: TGI
[8] = Half-life in Sprague-Dawley rat at 40 mg/kg, ig measured up to 24 hrs by LC-MS/MS analysis; type: ADME, organism-based; conditions: in vivo, po
[9] = Toxicity in ICR mouse assessed as maximum tolerated dose, ig administered once daily for 7 days; conditions: in vivo, po
[10] = target: Ribosomal protein S6 kinase beta-1 (Homo sapiens, UniProt P23443); test: Inhibition of human P70S6K by mobility shift assay
[11] = Tmax in ICR mouse at 40 mg/kg, ig measured up to 48 hrs by LC-MS/MS analysis; type: ADME, organism-based; conditions: in vivo, po
[12] = AUC (0 to infinity) in Sprague-Dawley rat at 40 mg/kg, ig measured up to 24 hrs by LC-MS/MS analysis; type: ADME, organism-based; parameters: dose 40 mg/kg, route […], time infinity; conditions: in vivo, po
[13] = MRT (0 to t) in ICR mouse at 40 mg/kg, ig measured up to 48 hrs by LC-MS/MS analysis; type: ADME, organism-based; conditions: in vivo, po
[14] = Stability in human plasma at 100 ug/ml after 1 hr by LC/MS analysis; type: ADME, cell-free; conditions: read-out: Stability
[15] = Toxicity in ICR mouse assessed as effect on serum hematology at 80 to 160 mg/kg, ig; type: organism-based; conditions: in vivo, po
[16] = Toxicity in BALB/c nude mouse xenografted with human SKOV3 cells assessed as effect on body weight at 40 mg/kg, po BID for 21 days; type: organism-based; conditions: in vivo, 504 h
[17] = Inhibition of recombinant His-tagged human PKA expressed in Escherichia coli using Ser/Thr 01 as substrate after 1 hr by Z-lyte assay
[18] = target: Ribosomal protein S6 kinase alpha-1 (Homo sapiens, UniProt Q15418); test: Inhibition of RSK1 (unknown origin) by mobility shift assay
[19] = target: T1, Serine/threonine-protein kinase Sgk1 (Homo sapiens, UniProt O00141); test: Inhibition of human SGK by mobility shift assay
T1 sequence (O00141 whole entry): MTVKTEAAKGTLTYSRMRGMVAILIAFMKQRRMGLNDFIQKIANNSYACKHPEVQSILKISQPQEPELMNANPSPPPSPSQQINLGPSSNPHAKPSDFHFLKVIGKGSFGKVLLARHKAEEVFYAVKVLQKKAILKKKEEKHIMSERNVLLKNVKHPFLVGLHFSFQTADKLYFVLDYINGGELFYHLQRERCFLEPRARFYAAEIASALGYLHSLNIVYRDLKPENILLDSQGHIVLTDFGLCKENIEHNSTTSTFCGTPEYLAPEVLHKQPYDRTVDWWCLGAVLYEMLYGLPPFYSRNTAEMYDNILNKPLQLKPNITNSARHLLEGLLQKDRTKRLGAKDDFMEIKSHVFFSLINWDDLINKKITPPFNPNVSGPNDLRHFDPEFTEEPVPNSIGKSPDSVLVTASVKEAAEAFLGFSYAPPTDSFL

[20] = target: Serine/threonine-protein kinase AKT (Homo sapiens, UniProt P31751+Q9Y243+P31749); test: Inhibition of Akt in human LNCaP cells assessed as reduction in PRAS40 phosphorylation at T246 residue after 1 hr by ELISA; type: cell-based
[21] = Toxicity in BALB/c nude mouse xenografted with human SKOV3 cells assessed as reduction in mouse survival at 60 to 80 mg/kg, po administered once daily for 21 days; type: organism-based; conditions: in vivo, 504 h
[22] = target: Potassium/sodium hyperpolarization-activated cyclic nucleotide-gated channel 2 (Homo sapiens, UniProt Q9UL51); test: Inhibition of HCN2 (unknown origin) at 3 uM relative to control
[23] = Microsomal stability in rat liver microsomes assessed as compound remaining at 100 ug/ml in presence of NADPH measured at 1.5 hrs by LC/MS analysis; type: ADME, Microsome; conditions: read-out: Stability
[24] = MRT (0 to t) in Sprague-Dawley rat at 40 mg/kg, ig measured up to 24 hrs by LC-MS/MS analysis; type: ADME, organism-based; conditions: in vivo, po
[25] = target: Potassium voltage-gated channel subfamily A member 7 (Homo sapiens, UniProt Q96RP8); test: Inhibition of Kv1.7 (unknown origin) at 3 uM relative to control
[26] = target: Potassium/sodium hyperpolarization-activated cyclic nucleotide-gated channel 1 (Homo sapiens, UniProt O60741); test: Inhibition of HCN1 (unknown origin) at 3 uM relative to control
[27] = target: Cystic fibrosis transmembrane conductance regulator (Homo sapiens, UniProt P13569); test: Inhibition of CFTR (unknown origin)
[28] = target: Potassium voltage-gated channel subfamily A member 5 (Homo sapiens, UniProt P22460); test: Inhibition of Kv1.5 (unknown origin) at 3 uM relative to control
[29] = Microsomal stability in mouse liver microsomes assessed as compound remaining at 100 ug/ml in presence of NADPH measured at 1.5 hrs by LC/MS analysis; type: ADME, Microsome; conditions: read-out: Stability
[30] = Microsomal stability in dog liver microsomes assessed as compound remaining at 100 ug/ml in presence of NADPH measured at 1.5 hrs by LC/MS analysis; type: ADME, Canis lupus familiaris, Microsome; conditions: read-out: Stability
[31] = AUC (0 to t) in Sprague-Dawley rat at 40 mg/kg, ig measured up to 24 hrs by LC-MS/MS analysis; type: ADME, organism-based; parameters: time < 24 hr, dose 40 mg/kg, route […]; conditions: in vivo, po

Chain of Ribosomal protein S6 kinase alpha-1 (Q15418 whole entry): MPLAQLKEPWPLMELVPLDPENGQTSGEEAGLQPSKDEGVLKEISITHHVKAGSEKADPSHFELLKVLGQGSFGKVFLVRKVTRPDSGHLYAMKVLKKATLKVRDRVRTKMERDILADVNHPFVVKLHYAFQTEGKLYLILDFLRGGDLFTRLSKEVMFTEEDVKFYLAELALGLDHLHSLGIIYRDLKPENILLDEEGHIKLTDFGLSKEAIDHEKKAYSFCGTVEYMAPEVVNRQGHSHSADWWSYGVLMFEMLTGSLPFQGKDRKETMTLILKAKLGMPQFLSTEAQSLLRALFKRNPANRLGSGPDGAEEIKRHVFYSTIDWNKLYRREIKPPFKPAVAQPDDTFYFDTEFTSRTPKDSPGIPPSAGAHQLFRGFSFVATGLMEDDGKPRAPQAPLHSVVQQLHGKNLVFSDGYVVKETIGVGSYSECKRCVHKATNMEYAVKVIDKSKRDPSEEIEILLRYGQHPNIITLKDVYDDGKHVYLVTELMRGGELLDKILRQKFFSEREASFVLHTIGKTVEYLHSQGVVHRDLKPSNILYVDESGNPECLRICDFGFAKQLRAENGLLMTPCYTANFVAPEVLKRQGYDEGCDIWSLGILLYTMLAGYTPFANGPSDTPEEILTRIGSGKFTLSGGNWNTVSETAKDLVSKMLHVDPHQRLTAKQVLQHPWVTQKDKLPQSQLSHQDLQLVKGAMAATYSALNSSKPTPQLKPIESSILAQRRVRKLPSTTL
Chain of Inward rectifier potassium channel 2 (P63252 whole entry): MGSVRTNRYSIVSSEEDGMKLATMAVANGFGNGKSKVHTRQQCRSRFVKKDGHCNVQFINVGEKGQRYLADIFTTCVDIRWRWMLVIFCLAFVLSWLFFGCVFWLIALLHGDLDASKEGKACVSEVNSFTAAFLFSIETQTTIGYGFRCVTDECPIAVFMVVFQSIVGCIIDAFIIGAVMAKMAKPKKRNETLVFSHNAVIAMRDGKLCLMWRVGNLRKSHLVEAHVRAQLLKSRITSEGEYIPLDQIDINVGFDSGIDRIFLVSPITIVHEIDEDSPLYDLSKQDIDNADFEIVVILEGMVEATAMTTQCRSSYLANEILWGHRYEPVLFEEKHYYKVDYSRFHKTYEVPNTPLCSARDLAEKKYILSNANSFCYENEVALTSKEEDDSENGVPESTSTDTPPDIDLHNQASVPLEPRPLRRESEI
Chain of Potassium/sodium hyperpolarization-activated cyclic nucleotide-gated channel 2 (Q9UL51 whole entry): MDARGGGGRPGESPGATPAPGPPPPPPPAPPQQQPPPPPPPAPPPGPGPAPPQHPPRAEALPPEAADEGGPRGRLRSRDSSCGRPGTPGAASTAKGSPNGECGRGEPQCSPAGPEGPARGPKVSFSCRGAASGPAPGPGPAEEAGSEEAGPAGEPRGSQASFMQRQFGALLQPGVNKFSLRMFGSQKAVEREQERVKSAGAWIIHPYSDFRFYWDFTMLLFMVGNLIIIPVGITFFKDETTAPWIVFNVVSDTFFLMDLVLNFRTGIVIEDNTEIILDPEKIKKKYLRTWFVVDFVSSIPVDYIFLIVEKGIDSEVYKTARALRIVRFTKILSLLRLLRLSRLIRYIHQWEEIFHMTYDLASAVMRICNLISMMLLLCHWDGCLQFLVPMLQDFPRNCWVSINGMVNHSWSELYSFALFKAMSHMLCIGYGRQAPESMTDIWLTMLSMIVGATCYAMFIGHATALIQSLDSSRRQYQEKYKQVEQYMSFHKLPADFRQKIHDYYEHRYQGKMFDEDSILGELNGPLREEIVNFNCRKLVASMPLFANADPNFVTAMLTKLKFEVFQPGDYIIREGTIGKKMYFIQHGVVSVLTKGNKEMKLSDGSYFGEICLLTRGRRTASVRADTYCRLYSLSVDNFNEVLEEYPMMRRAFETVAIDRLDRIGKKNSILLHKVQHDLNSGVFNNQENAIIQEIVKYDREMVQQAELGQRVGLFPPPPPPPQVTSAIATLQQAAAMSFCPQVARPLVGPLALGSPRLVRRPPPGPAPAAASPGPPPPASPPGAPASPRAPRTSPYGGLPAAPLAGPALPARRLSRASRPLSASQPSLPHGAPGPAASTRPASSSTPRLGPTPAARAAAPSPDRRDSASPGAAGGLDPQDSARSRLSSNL
Chain of Ribosomal protein S6 kinase beta-1 (P23443 whole entry): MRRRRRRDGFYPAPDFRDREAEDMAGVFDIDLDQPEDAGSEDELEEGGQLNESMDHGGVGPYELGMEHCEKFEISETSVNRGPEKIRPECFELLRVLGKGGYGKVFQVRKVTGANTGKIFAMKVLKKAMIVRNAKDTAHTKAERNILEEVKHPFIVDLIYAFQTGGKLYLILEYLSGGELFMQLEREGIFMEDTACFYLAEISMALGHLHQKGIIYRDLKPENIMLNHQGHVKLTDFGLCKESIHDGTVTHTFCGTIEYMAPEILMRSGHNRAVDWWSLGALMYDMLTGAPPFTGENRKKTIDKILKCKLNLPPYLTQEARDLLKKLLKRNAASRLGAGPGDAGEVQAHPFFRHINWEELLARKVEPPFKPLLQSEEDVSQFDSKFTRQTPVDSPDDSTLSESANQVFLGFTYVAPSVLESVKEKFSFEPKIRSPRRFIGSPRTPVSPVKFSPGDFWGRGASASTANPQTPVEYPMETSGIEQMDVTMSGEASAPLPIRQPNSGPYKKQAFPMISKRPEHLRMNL
Chain of Potassium voltage-gated channel subfamily A member 5 (P22460 whole entry): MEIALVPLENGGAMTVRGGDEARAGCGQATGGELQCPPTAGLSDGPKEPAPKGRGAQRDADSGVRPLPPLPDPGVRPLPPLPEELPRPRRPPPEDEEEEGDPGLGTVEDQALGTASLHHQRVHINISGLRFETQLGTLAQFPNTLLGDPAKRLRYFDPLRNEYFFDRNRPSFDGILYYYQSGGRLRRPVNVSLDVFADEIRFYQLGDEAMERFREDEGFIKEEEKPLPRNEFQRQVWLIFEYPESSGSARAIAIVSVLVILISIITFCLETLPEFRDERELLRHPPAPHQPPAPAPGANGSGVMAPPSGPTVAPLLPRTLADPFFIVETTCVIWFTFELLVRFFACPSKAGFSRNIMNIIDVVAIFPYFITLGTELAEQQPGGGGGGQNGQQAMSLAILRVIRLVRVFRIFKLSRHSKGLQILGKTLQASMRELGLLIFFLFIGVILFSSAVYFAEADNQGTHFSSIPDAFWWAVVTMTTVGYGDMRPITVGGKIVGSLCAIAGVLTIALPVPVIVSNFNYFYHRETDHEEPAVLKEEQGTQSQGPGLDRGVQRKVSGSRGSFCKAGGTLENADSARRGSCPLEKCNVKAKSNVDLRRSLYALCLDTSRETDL
Chain of Potassium/sodium hyperpolarization-activated cyclic nucleotide-gated channel 3 (Q9P1Z3 whole entry): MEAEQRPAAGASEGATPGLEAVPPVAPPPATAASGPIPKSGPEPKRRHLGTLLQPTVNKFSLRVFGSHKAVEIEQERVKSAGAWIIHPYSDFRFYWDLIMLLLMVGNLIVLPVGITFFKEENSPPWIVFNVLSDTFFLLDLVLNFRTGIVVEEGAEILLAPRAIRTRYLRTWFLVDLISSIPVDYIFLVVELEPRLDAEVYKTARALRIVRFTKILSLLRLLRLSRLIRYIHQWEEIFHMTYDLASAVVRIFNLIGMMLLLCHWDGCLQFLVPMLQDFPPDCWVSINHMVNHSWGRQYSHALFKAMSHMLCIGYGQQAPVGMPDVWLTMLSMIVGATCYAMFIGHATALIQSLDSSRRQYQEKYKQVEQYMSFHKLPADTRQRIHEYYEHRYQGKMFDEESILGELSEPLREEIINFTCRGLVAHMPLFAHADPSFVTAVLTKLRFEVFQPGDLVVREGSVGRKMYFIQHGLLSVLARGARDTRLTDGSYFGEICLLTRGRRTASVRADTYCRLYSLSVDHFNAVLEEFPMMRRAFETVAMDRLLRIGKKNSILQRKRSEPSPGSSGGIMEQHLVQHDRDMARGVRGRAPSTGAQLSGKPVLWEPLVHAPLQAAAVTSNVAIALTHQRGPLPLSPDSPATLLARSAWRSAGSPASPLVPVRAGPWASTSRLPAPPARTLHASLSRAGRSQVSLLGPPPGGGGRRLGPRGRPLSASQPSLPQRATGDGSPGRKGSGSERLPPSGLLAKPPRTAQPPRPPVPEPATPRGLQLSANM
Chain of Potassium/sodium hyperpolarization-activated cyclic nucleotide-gated channel 1 (O60741 whole entry): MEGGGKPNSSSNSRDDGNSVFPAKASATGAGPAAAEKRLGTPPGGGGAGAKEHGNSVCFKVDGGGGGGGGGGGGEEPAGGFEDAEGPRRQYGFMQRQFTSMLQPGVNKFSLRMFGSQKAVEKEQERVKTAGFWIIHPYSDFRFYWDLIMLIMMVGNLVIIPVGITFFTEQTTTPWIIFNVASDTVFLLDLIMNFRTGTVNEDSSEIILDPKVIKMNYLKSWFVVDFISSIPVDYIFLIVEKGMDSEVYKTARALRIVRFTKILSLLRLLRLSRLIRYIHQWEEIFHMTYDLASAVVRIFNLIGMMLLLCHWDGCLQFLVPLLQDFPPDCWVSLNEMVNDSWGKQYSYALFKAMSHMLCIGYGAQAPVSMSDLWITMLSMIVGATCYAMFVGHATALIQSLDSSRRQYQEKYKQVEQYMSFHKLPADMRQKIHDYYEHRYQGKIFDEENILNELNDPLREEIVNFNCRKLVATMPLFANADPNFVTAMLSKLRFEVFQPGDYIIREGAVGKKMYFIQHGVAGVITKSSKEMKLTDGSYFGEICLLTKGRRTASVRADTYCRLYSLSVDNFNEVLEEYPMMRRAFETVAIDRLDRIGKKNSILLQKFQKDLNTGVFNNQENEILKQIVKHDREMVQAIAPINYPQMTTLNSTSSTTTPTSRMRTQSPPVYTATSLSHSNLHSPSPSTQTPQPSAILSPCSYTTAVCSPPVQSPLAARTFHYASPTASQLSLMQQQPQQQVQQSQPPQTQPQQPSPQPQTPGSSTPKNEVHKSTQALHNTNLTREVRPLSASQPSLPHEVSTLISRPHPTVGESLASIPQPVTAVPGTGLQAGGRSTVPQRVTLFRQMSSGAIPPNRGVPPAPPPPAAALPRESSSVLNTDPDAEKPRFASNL

Compound: CNC(=O)C[C@@H]1C[C@@H](c2ccc(F)c(F)c2)[C@H](NC(=O)c2cc(-c3c(Cl)cnn3C)c(Cl)o2)CN1
- inhibition in vivo at 60 mg/kg (SK-OV-3 [1]): 79.2%
- inhibition (INH) [2]: Not Active
- Tmax [3]: 1.8 h
- inhibition (INH) [4]: Not Active
- Activity [5]: Non-Toxic
- Activity [6]: Non-Toxic
- inhibition in vivo at 80 mg/kg (SK-OV-3 [7]): 90%
- half-life [8]: 6.4 h
- MTD at 168 h [9]: ≥ 80 mg/kg
- IC50 [10]: 8.9 nM
- Tmax [11]: 1 h
- AUC(0-inf) [12]: 3090 ng·h/mL
- MRT last at 48 h [13]: 5.2 h
- remaining at 1 h, 100 ug/ml [14]: > 99%
- Activity [15]: Non-Toxic
- Activity [16]: Non-Toxic
- IC50 [17]: 0.3 nM
- IC50 [18]: 131 nM
- IC50 [19]: 145 nM
- IC50 [20]: 44 nM
- Activity [21]: Non-Toxic
- inhibition (INH) [22]: Not Active
- remaining at 1.5 h, 100 ug/ml [23]: 89%
- MRT last at 24 h [24]: 5.8 h
- inhibition (INH) [25]: Not Active
- inhibition (INH) [26]: Not Active
- inhibition (INH) [27]: Not Active
- inhibition (INH) [28]: Not Active
- remaining at 1.5 h, 100 ug/ml [29]: > 99%
- remaining at 1.5 h, 100 ug/ml [30]: 96%
- AUC(0-t) at 24 h [31]: 2440 ng·h/mL
